Source: patent US20150023887A1, “Antiperspirant Spray Devices and Compositions” (The Procter & Gamble Company, priority 2013, published 2015)

Text: (§1) Solubility may be determined by measuring the amount of light transmittance (a light transmittance value) through a simple mixture of the non-volatile silicone fluid and liquid activation enhancer at the same weight/weight concentrations as in a final antiperspirant composition.
as §1, with “Solubility of a liquid activation enhancer in a non-volatile silicone” for “Solubility”, “(light” for “(a light”
The Spectronic Genesys 10 Vis utilizes a tungsten-halogen light source and has a spectral bandwidth of 5 nm, a wavelength range of 325 to 1100 nm, accuracy of ±1 nm and a repeatability of ±0.5 nm. Readouts include absorbance, transmittance and concentration. The spectrophotometer is set to 640 nm wavelength and the percent transmittance mode/readout. Polystyrene spectrometer cuvettes having a 1 cm optical light path and transmittance between ˜340 nm and ˜900 nm are used. One suitable example of a spectrometer cuvette is available from VWR International LLC under Catalog #97000-584 having a 2.5 to 4.5 ml capacity. The spectrophotometer is calibrated according to the manufacturer's instructions using a reference cuvette and composition comprised of just the non-volatile silicone fluid of interest. For example, if the test composition comprises 50 centistoke dimethicone and 15% w/w of isopropyl myristate, then the spectrometer is calibrated using a cuvette containing just 50 centistoke dimethicone. Sample cuvettes are filled sufficiently with a test composition of a non-volatile silicone fluid and liquid activation enhancer so that the light path of the spectrophotometer passes through the test composition in the cuvette. The sample cuvettes are shaken well just prior to taking a light transmittance reading.

light transmittance value | Molecule | solubility in 50 centistoke dimethicone
about 100% | CCCCCCCCCCCCCCCCCC(=O)OCCCC [butyl stearate] | 
about 100% | CCCCCCCCCCCCCC(C)C [isohexadecane] | soluble in 50 centistoke dimethicone across the 2% to 30% w/w concentration range
about 101% | CCCCCCCCCCCCCCCC(=O)OC(C)C [isopropyl palmitate] | 
about 101% | CCCCCCCCCCCCCC(=O)OC(C)C [isopropyl myristate] | 
 | PPG-14 butyl ether | insoluble in 50 centistoke dimethicone across the 2% to 30% w/w concentration range
 | CCCCCCCCCCC(CO)CCCCCCCC (centres unmarked) [octyldodecanol] | soluble in the 50 centistoke dimethicone at some (lower) concentrations
 | mineral oil | soluble in 50 centistoke dimethicone at some (lower) concentrations
